Activity calls are given as the source filed them. The rule behind the calls is not given here.
Assays:
[1] = system: MEF; assay: Effect on WNT-3A induced Axin2 mRNA expression in mouse MEF cells at 10 uM stimulated with WNT-3A prior to compound addition and measured after 24 hrs by qPCR analysis; type: functional, cell-based
[2] = system: HEK293; assay: Inhibition of firefly luciferase expression in deltaFZD1-10 HEK293 cells assessed as reduction in bioluminescence incubated for 24 hrs by microplate reader analysis; type: functional, cell-based; settings: Homo sapiens, dose 0.1-1000 nM
[3] = system: HEK293; assay: Effect on Nano-luciferase activity in deltaFZD1-10 HEK293 cells at 0.1 to 1000 nM incubated for 24 hrs under TK promoter by luminescence based analysis; type: functional, cell-based; settings: Homo sapiens, dose 0.1-1000 nM
[4] = system: HEK293; assay: Inhibition of Wnt/beta-catenin signalling in deltaFZD1-10 HEK293 cells transfected with HiBit-FZD7 assessed as reduction in topflash signal at 10 uM incubated for 24 hrs by dual luciferase reporter assay; type: cell-based; settings: Homo sapiens
[5] = Inhibition of Wnt/beta-catenin signalling in deltaFZD1-10 HEK293 cells transfected with HiBit-FZD7 assessed as inhibition of CHIR99021-induced TOPFlash ratio incubated for 24 hrs by dual luciferase reporter assay; type: cell-based; settings: Homo sapiens, HEK293, 24 h
[6] = Inhibition of firefly luciferase expression in deltaFZD1-10 HEK293 cells incubated for 24 hrs by microplate reader analysis; type: functional, cell-based; settings: Homo sapiens, HEK293, 24 h
[7] = system: HEK293; assay: Inhibition of Wnt/beta-catenin signalling in deltaFZD1-10 HEK293 cells transfected with FZD7-DEP-Clamp assessed as effect on WNT-3A induced FZD7-DEP-Clamp signal using furimazine as substrate at 10 uM preincubated for 10 mins followed by WNT-3A stimulation and measured every 2 mins for 1 hr by luminescence based analysis; type: cell-based; settings: Homo sapiens, time 70.0 min
[8] = system: HEK293; assay: Effect on renilla luciferase level deltaFZD1-10 HEK293 cells assessed as reduction in Rluc-bioluminescence at 0.1 to 1000 nM incubated for 24 hrs by luminescence based analysis; type: functional, cell-based; settings: Homo sapiens, dose 0.1-1000 nM
[9] = system: HEK293; assay: Inhibition of Wnt/beta-catenin signalling in deltaFZD1-10 HEK293 cells transfected with HiBit-FZD7 assessed as reduction in Wnt3a induced topflash signal at 10 uM pre-stimulated with Wnt3a followed by compound addition and measured after 24 hrs by dual luciferase reporter assay; type: cell-based; settings: Homo sapiens

Cc1ccc(C(=O)Nc2ccc(SCC(=O)Nc3nc(-c4ccccc4)cs3)cc2)c(C)c1
Activity [1]: inactive | inhibition [2]: Dose-dependent-effect | Activity [3]: inactive | inhibition [4]: Active | IC50 ([5]; read-out: IC50): 33 nM | IC50 ([5]; read-out: pIC50 (converted)): 33.9 nM | IC50 [6]: 23.7 nM | inhibition [7]: inactive | Activity [8]: inactive | inhibition [9]: Active
